Reference: patent US20240391892A1, “A SMALL MOLECULE COMPOUND AND ITS USE AND PREPARATION METHOD” (SHANGHAI COACHCHEM TECHNOLOGY CO., LTD, priority 2022, published 2024)
Where “and” joins values, the source holds several entries; their conditions need not be identical. Equal values may be shown once.

Key:
[1] = In vitro DPPH free radical scavenging test; type: biochemical; parameters: DPPH Free Radical Scavenging Rate (%v/v): unit not given here; details: for DPPH Free Radical Scavenging Rate (%v/v): mean ± SD; for DPPH Free Radical Scavenging Rate (%): replicate wells
Excerpt: The DPPH radical scavenging assay is an in vitro method used to evaluate antioxidant activity. DPPH is a stable free radical in organic solvents and appears purple in methanol or ethanol, with maximum absorption at a wavelength of 517 nm. The DPPH assay is based on the ability of an antioxidant to donate an electron to the DPPH radical, converting its purple color to yellow. The degree of absorbance change at 517 nm corresponds to the extent of the free radical scavenging activity, meaning the stronger the scavenging ability of the antioxidant, the lower the absorbance.
Using ascorbic acid (VC) as a system reference, dilute it with PBS to obtain five concentrations: 12.5, 25, 50, 100, and 200 μg/mL. Perform the test and calculations according to the procedure outlined in 3.3.2. Plot the reference curve with the concentration of the reference substance on the x-axis and the DPPH free radical scavenging rate on the y-axis.
Prepare the samples into the respective concentrations of test solutions. Prepare the reaction system by adding the specified amount of each reagent mentioned in Table 1, mix thoroughly. For each concentration, set up three replicate wells and one blank control well.
The reaction system is placed at room temperature and allowed to react in the dark for 30 minutes. After the reaction is complete, the absorbance (OD value) is measured at 515 nm. The formula to calculate the scavenging rate of the sample against DPPH free radicals is as follows:
[formula] [formula] • Where: • C1=Absorbance value of the blank with DPPH • C2=Absorbance value of the blank without DPPH • T1=Absorbance value of the sample with DPPH • T2=Absorbance value of the sample without DPPH

[2] = Stability test under light and temperature, content by HPLC-DAD; type: physicochemical
Protocol: To compare the stability of Retinyl-trans-4-tert-Butylcyclohexanol and retinol […] under different conditions.
A certain amount of retinol and Retinyl-trans-4-tert-Butylcyclohexanol is taken and placed under conditions of light exposure, 4° C., 25° C., 45° C., and 50° C. for 28 days. Samples are periodically collected to determine their content and examine the influence of light and temperature on their stability.
High-Performance Liquid Chromatography with Diode Array Detection (HPLC-DAD), Electronic Balance (precision of 0.01 mg), Chromatographic Column (Welch Ultimate series XB-C18 column, 250 mm*4.6 mm, 5 μm), Several volumetric flasks.
(§1) Accurately weigh approximately 0.1g of Retinyl-trans-4-tert-Butylcyclohexanol samples obtained under conditions of light exposure, 4° C., 25° C., 45° C., and 50° C. into a 100 mL brown volumetric flask. Add an appropriate amount of acetonitrile while avoiding light, ultrasonicate, dilute to the mark, shake well, and prepare two parallel samples for each condition.
as §1, with “0.1 g” for “0.1g”, “retinol” for “Retinyl-trans-4-tert-Butylcyclohexanol”
Operate according to the procedures for high-performance liquid chromatography (HPLC) usage and maintenance: • I) Run the blank solvent, inject 2 times, record the chromatogram for up to 30 minutes; • II) Run at least 3 injections of the control solution 1, record the chromatogram for up to 30 minutes; • III) Run the control solution 2, inject 2 times, record the chromatogram for up to 30 minutes; • IV) Inject 2 samples of the test solution, record the chromatogram for up to 30 minutes; • V) Adjust the chromatogram scale, integrate, and print. […]

HaCat cells = assay: Intracellular ROS scavenging test in UVB-irradiated HaCat cells; type: cell-based, human; details: UVB 20 mJ/cm2, 24 hours incubation, vs UVB control, p<0.001
Protocol: Among these factors, UV radiation stands as the most significant contributor. Skin exposed to UV radiation generates an excess of reactive oxygen species (ROS) within cells, triggering the expression of genes related to aging, instigating an inflammatory cascade, and reducing the expression of elastin and collagen proteins, leading to manifestations of photoaging like skin laxity and wrinkles. Photoaging predominantly occurs in the dermis.
UVB irradiation is administered to immortalized human keratinocytes (HaCat cells) to induce intracellular reactive oxygen species (ROS) generation. The UVB dose applied to HaCat cells is 20 mJ/cm2. Following the UVB treatment, varying concentrations of Retinyl 4-t-Butylcyclohexanol test samples are added to the cells and incubated for 24 hours. ROS levels within the cells are assessed using a ROS detection kit.
Graph Pad Prism was used for statistical plotting, and the results were presented as Mean±SD. Statistical analysis was conducted using the t-test. A significance level of p<0.05 was considered statistically significant, where *p<0.05, ** p<0.0 1 (0.005<** p<0.01), and *** p<0.001, indicating increased significance as the p-value decreases. When employing the t-test for statistical analysis, the comparison between the UVB control group and the Control group was represented as # (p<0.001 indicated as ###). […]

Content after storage ([2]; 28 days at 4° C.)	Content after storage ([2]; 28 days at room temperature)	Stability compared with retinol ([2]; light exposure, room temperature, 45° C. and 50° C., 28 days, not at 4° C.)	SMILES	DPPH free radical scavenging compared to the control group ([1]; concentrations 0.02% to 4%, p<0.001)	DPPH Free Radical Scavenging Rate (%v/v) ([1]; sample concentration 0.02 %v/v)	DPPH Free Radical Scavenging Rate (%v/v) ([1]; sample concentration 0.1 %v/v)	DPPH Free Radical Scavenging Rate (%v/v) ([1]; sample concentration 0.5 %v/v)	DPPH Free Radical Scavenging Rate (%v/v) ([1]; sample concentration 2 %v/v)	DPPH Free Radical Scavenging Rate (%v/v) ([1]; sample concentration 4 %v/v)	UVB-induced intracellular ROS levels (HaCat cells)	DPPH Free Radical Scavenging Rate (%) ([1]; concentration 12.5 μg/mL)	DPPH Free Radical Scavenging Rate (%) ([1]; concentration 25 μg/mL)	DPPH Free Radical Scavenging Rate (%) ([1]; concentration 50 μg/mL)	DPPH Free Radical Scavenging Rate (%) ([1]; concentration 100 μg/mL)	DPPH Free Radical Scavenging Rate (%) ([1]; concentration 200 μg/mL)
above 98%	above 98%	significantly higher	CC1=C(/C=C/C(C)=C/C=C/C(C)=C/C(=O)O[C@H]2CC[C@H](C(C)(C)C)CC2)C(C)(C)CCC1 [Retinyl 4-trans-t-Butylcyclohexanol, retinoic acid trans-4-tert-butylcyclohexyl ester]	statistically significant increase	9.87 ± 3.44	15.91 ± 1.25	36.72 ± 1.98	48.12 ± 1.07	83.96 ± 1.22	effectively reduced					
			O=C1O[C@H]([C@@H](O)CO)C(O)=C1O [ascorbic acid]								20.55% and 18.55% and 20.32%	30.26% and 31.17% and 32.98%	64.58% and 65.09% and 62.73%	101.32% and 95.11% and 97.07%	101.28% and 92.01% and 108.75%
